In patent US20240246941A1, “SUBSTITUTED 4-(3-AMINOPROP-1-YL)AMINOQUINOLINE ANALOGS AS MODULATORS OF MELANOMA-ASSOCIATED ANTIGEN 11 UBIQUITIN LIGASE” (ST. JUDE CHILDREN'S RESEARCH HOSPITAL, INC., priority 2020, published 2024) one finds IC50 data, which are given here for 71 molecules.

Sequence of interaction between GST-MAGEA11 MHD and FAM-PCF11_4 peptide (MAGE-A11:PCF11) (P43364 218-429): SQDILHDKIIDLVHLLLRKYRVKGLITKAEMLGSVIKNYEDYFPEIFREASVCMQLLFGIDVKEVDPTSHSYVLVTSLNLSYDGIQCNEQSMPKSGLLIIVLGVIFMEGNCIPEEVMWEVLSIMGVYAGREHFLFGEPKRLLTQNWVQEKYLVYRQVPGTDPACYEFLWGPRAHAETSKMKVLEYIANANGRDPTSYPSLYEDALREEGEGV

One experiment has as its target interaction between GST-MAGEA11 MHD and FAM-PCF11_4 peptide (MAGE-A11:PCF11) (Homo sapiens (Human), UniProt P43364). Nature of the experiment: TR-FRET dose response competition assay for disruption of MAGE-A11:PCF11 binding. As to conditions: Dose response TR-FRET screening of nine scaffold groups against MAGE-A11:PCF11; read-out: consensus IC50. In outline:
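Competition TR-FRET at room temperature in 50 mM Tris pH 7.5, 20 mM MgCl2, 0.1 mg/ml BSA, 1 mM DTT: final 5 nM GST-MAGEA11 MHD, 5 nM Tb-anti-GST, 200 nM FAM-PCF11_4, 90 min. Ratio 520/490 nm converted to % inhibition; IC50 from sigmoidal fit.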
On to `COc1ccc(C2=C(c3ccc([N+](=O)[O-])cc3)C(=O)OC2)cc1` [SJ000367280-1], for which the IC50 came to 69.9 µM.
Same read-out and setting: then `CC(C)(C)c1ccc(C2=C(c3ccc([N+](=O)[O-])cc3)C(=O)OC2)cc1` [SJ000368097-1], with 69.9 µM; and `CCCc1ccc(C2=C(c3ccc([N+](=O)[O-])cc3)C(=O)OC2)cc1` [SJ000368117-1], with 69.9 µM; and `CCc1ccc(C2=C(c3ccc([N+](=O)[O-])cc3)C(=O)OC2)cc1` [SJ000368127-1], with 69.9 µM.
Still for that read-out and setting: in the case of `O=C1OCC(c2ccc(OC(F)F)cc2)=C1c1ccc([N+](=O)[O-])cc1` [SJ000368145-1] it was 40.8 µM; in that of `O=C1OCC(c2ccc(F)cc2)=C1c1ccc([N+](=O)[O-])cc1` [SJ000368155-1], 69.9 µM.
Still for that read-out and setting: in the case of `CCC(C)c1ccc(C2=C(c3ccc([N+](=O)[O-])cc3)C(=O)OC2)cc1` (centres unmarked) [SJ000368165-1] it was 69.9 µM.
Consider `CCCn1c(-c2ccc(Cl)cc2)nc2c1c(=O)[nH]c(=O)n2Cc1ccccc1` [SJ000375541-1], for which the IC50 worked out at 69.9 µM.
On to `CCCn1c(-c2ccc(C(C)(C)C)cc2)nc2c1c(=O)[nH]c(=O)n2Cc1ccccc1` [SJ000375920-1], for which the 50% inhibitory concentration (IC50) was found to be 69.9 µM.
Still for that read-out and setting: in the case of `CCCn1c(-c2cccc([N+](=O)[O-])c2)nc2c1c(=O)[nH]c(=O)n2Cc1ccccc1` [SJ000376601-1] it was 69.9 µM; in that of `CCCn1c(-c2ccc(OC(F)F)cc2)nc2c1c(=O)[nH]c(=O)n2Cc1ccccc1` [SJ000376621-1], 69.9 µM.
As to `CCCn1c(=O)[nH]c(=O)c2c1nc(-c1ccc(OC(F)F)cc1)n2CCN1CCOCC1` [SJ000377779-1], the IC50 was 69.9 µM.
The same measure, in the same setting: then `CCCn1c(=O)[nH]c(=O)c2c1nc(-c1ccc(C(C)(C)C)cc1)n2CCN1CCOCC1` [SJ000377955-1], with 69.9 µM; and `CCCCn1c(=O)[nH]c(=O)c2c1nc(-c1ccc(CC)c([N+](=O)[O-])c1)n2C` [SJ000378868-1], with 69.9 µM.
Still for that read-out and setting: in the case of `C=CCOc1ccc(-c2nc3c(c(=O)[nH]c(=O)n3CCC)n2CCCC)cc1` [SJ000378878-1] it was 69.9 µM.
Same read-out and setting: then `C=CCOc1ccc(-c2nc3c(c(=O)[nH]c(=O)n3Cc3ccccc3)n2CCCOC)cc1` [SJ000378880-1], with 69.9 µM; and `CCCn1c(=O)[nH]c(=O)c2c1nc(-c1ccc(OC)c(Br)c1)n2CCOC` [SJ000378893-1], with 69.9 µM.
As for `CCCCCn1c(-c2ccc(F)c(Br)c2)nc2c1c(=O)[nH]c(=O)n2CCCC` [SJ000378900-1], the IC50 was 2.64 µM.
For `CCCCn1c(=O)[nH]c(=O)c2c1nc(-c1ccc(OCC(C)C)c(OCC)c1)n2CC` [SJ000378903-1], the IC50 was determined as 69.9 µM.
Still for that read-out and setting: in the case of `CCCCn1c(-c2ccc(OCCC)c(OCC)c2)nc2c1c(=O)[nH]c(=O)n2CCC` [SJ000378906-1] it was 69.9 µM.
Same read-out and setting: in the case of `CCCCn1c(-c2ccc(Cl)cc2)nc2c1c(=O)[nH]c(=O)n2Cc1ccccc1` [SJ000378907-1] it was 69.9 µM; in that of `CCCCn1c(=O)[nH]c(=O)c2c1nc(-c1ccc(C(F)(F)F)cc1)n2C` [SJ000378916-1], 69.9 µM; in that of `COCCn1c(-c2ccc(SC)cc2)nc2c1c(=O)[nH]c(=O)n2CC(C)C` [SJ000378917-1], 69.9 µM.
On to `CCCCn1c(=O)[nH]c(=O)c2c1nc(-c1ccc(C)c([N+](=O)[O-])c1)n2CC` [SJ000378919-1], for which the IC50 amounted to 69.9 µM.
With `CCCn1c(=O)[nH]c(=O)c2c1nc(-c1cccc(F)c1)n2CCOC` [SJ000378928-1], the IC50 was determined as 69.9 µM.
For the molecule `CCCCn1c(=O)[nH]c(=O)c2c1nc(-c1ccc([N+](=O)[O-])cc1)n2CC` [SJ000378938-1], the IC50 turned out to be 69.9 µM.
Still for that read-out and setting: then `CCCCn1c(=O)[nH]c(=O)c2c1nc(-c1ccc(OC)c(Br)c1)n2CC(C)C` [SJ000378943-1], with 69.9 µM; and `CCCCn1c(=O)[nH]c(=O)c2c1nc(-c1ccc(OCCC)c(OCC)c1)n2CCOC` [SJ000378946-1], with 69.9 µM; and `CCCCn1c(=O)[nH]c(=O)c2c1nc(-c1ccc(OC(F)(F)C(F)C(F)(F)F)cc1)n2O` (centres unmarked) [SJ000378966-1], with 69.9 µM.
Still for that read-out and setting: in the case of `Cc1ccc(-c2nc3c(c(=O)[nH]c(=O)n3CC(C)C)n2CC(C)C)cc1[N+](=O)[O-]` [SJ000379015-1] it was 69.9 µM.
Same read-out and setting: then `C=CCOc1ccc(-c2nc3c(c(=O)[nH]c(=O)n3Cc3ccccc3)n2CCC)cc1Br` [SJ000379301-1], with 69.9 µM; and `CCCn1c(=O)[nH]c(=O)c2c1nc(-c1ccc(OC(F)(F)C(F)C(F)(F)F)cc1)n2CCOC` (centres unmarked) [SJ000379374-1], with 69.9 µM.
For the molecule `C=CCOc1ccc(-c2nc3c(c(=O)[nH]c(=O)n3CCCC)n2C)cc1Br` [SJ000379462-1], the IC50 amounted to 69.9 µM.
For the molecule `CCCn1c(-c2ccc(SC)cc2)nc2c1c(=O)[nH]c(=O)n2Cc1ccccc1` [SJ000381119-1], the IC50 came out at 69.9 µM.
`CCCOc1ccc(-c2nc3c(c(=O)[nH]c(=O)n3Cc3ccccc3)n2CCO)cc1OCC` [SJ000381474-1]: the IC50 was 69.9 µM.
The same measure, in the same setting: in the case of `CCCCn1c(=O)[nH]c(=O)c2c1nc(-c1ccc(SC)cc1)n2C` [SJ000382100-1] it was 69.9 µM.
The same measure, in the same setting: in the case of `COc1ccc(Br)cc1-c1nc2c(c(=O)[nH]c(=O)n2Cc2ccccc2)n1C` [SJ000382136-1] it was 69.9 µM; in that of `CCCn1c(-c2cccc(C(F)(F)F)c2)nc2c1c(=O)[nH]c(=O)n2Cc1ccccc1` [SJ000382289-1], 69.9 µM.
The same measure, in the same setting: in the case of `CCCn1c(-c2cccc(F)c2)nc2c1c(=O)[nH]c(=O)n2Cc1ccccc1` [SJ000382299-1] it was 69.9 µM; in that of `CCCn1c(-c2ccc(C#N)cc2)nc2c1c(=O)[nH]c(=O)n2Cc1ccccc1` [SJ000383781-1], 69.9 µM.
`COCCCn1c(-c2cccc(Cl)c2)nc2c1c(=O)[nH]c(=O)n2Cc1ccccc1` [SJ000383944-1]: the IC50 is 69.9 µM.
On the same count and under the same terms, then `Cn1c(-c2ccc(Cl)cc2)nc2c1c(=O)[nH]c(=O)n2Cc1ccccc1` [SJ000384618-1], with 69.9 µM; and `Cn1c(-c2cc(Cl)ccc2O)nc2c1c(=O)[nH]c(=O)n2Cc1ccccc1` [SJ000386224-1], with 69.9 µM; and `Cn1c(-c2cccc(F)c2)nc2c1c(=O)[nH]c(=O)n2Cc1ccccc1` [SJ000387665-1], with 69.9 µM.
Still for that read-out and setting: then `CCOc1ccc(-c2nc3c(c(=O)[nH]c(=O)n3Cc3ccccc3)n2C)cc1` [SJ000389476-1], with 69.9 µM.
Same read-out and setting: then `CC(C)Cn1c(-c2cc([N+](=O)[O-])ccc2Cl)nc2c1c(=O)[nH]c(=O)n2Cc1ccccc1` [SJ000390112-1], with 69.9 µM; and `CSc1ccc(-c2nc3c(c(=O)[nH]c(=O)n3CC(C)C)n2CC(C)C)cc1` [SJ000394956-1], with 69.9 µM; and `CCCN1C(=O)c2ccccc2NC1c1cccc(O)c1O` (centres unmarked) [SJ000395233-1], with 69.9 µM.
Consider `COCCNC(=O)Cn1cnc2cc(-c3ccc(Cl)cc3)sc2c1=O` [SJ000395304-1], for which the IC50 was 69.9 µM.
As to `CN(C)c1ccc(-c2nc3c(c(=O)[nH]c(=O)n3Cc3ccccc3)n2C)cc1` [SJ000396262-1], the IC50 amounted to 69.9 µM.
With `COc1ccc(-c2cc3ncn(CC(=O)O)c(=O)c3s2)cc1` [SJ000397503-1], the IC50 turned out to be 69.9 µM.
On the same count and under the same terms, in the case of `N#CCCn1cnc2cc(-c3ccc(Br)cc3)sc2c1=O` [SJ000397713-1] it was 69.9 µM; in that of `CCCCOC(=O)Cn1cnc2cc(-c3ccc(OC)cc3)sc2c1=O` [SJ000399852-1], 69.9 µM; in that of `CCOC(=O)Cn1cnc2cc(-c3ccc(OC)cc3)sc2c1=O` [SJ000399862-1], 69.9 µM.
The same measure, in the same setting: then `CCCn1c(=O)[nH]c(=O)c2c1nc(-c1ccc(C#N)cc1)n2CCN1CCOCC1` [SJ000403937-1], with 69.9 µM; and `Cn1c(-c2ccc(C(F)(F)F)cc2)nc2c1c(=O)[nH]c(=O)n2Cc1ccccc1` [SJ000404631-1], with 69.9 µM.
On to `CSc1nc2cc(-c3ccccc3)sc2c(=O)n1CCN1CCOCC1` [SJ000405932-1], for which the IC50 was 69.9 µM.
On to `CCCn1c(=O)[nH]c(=O)c2c1nc(-c1ccc(NC(C)=O)cc1)n2CCN1CCOCC1` [SJ000406218-1], for which the IC50 came to 69.9 µM.
With `COCCCn1c(-c2cc(Br)ccc2F)nc2c1c(=O)[nH]c(=O)n2Cc1ccccc1` [SJ000411586-1], the IC50 was 69.9 µM.
Still for that read-out and setting: then `O=C1OCC(c2ccc(Cl)cc2)=C1c1ccc([N+](=O)[O-])cc1` [SJ000413143-1], with 69.9 µM; and `CCC(C)N1C(=O)c2ccccc2NC1c1cccc(OC)c1O` (centres unmarked) [SJ000413320-1], with 69.9 µM.
Same read-out and setting: in the case of `CCCN1C(=O)c2ccccc2NC1c1cc(Cl)c(O)c(OC)c1` (centres unmarked) [SJ000414199-1] it was 69.9 µM.
Still for that read-out and setting: then `CCCCn1c(=O)[nH]c(=O)c2c1nc(-c1cccc(F)c1)n2CC` [SJ000414469-1], with 69.9 µM.
Regarding `CCCCn1c(=O)[nH]c(=O)c2c1nc(-c1cccc(F)c1)n2C` [SJ000415940-1], the IC50 is 69.9 µM.
Same read-out and setting: in the case of `CCCn1c(=O)[nH]c(=O)c2c1nc(-c1ccc(SC)cc1)n2CCOC` [SJ000416762-1] it was 69.9 µM; in that of `COC(=O)Cn1cnc2cc(-c3ccc(Cl)cc3)sc2c1=O` [SJ000418500-1], 69.9 µM; in that of `COCCCn1c(-c2ccc(C#N)cc2)nc2c1c(=O)[nH]c(=O)n2Cc1ccccc1` [SJ000420075-1], 69.9 µM.
On to `C=CCOc1ccc(-c2nc3c(c(=O)[nH]c(=O)n3Cc3ccccc3)n2C)cc1Br` [SJ000420085-1], for which the 50% inhibitory concentration (IC50) stood at 69.9 µM.
On the same count and under the same terms, in the case of `CCCn1c(-c2ccc(C(=O)O)cc2)nc2c1c(=O)[nH]c(=O)n2Cc1ccccc1` [SJ000420129-1] it was 69.9 µM.

Staying with this experiment, now noted: Table 5, dose response TR-FRET screening of 59 quinoline compounds against MAGE-A11:PCF11; read-out: TR-FRET IC50.
As to `CCCN(CCCNc1ccnc2cc(C(F)(F)F)ccc12)CC(CC)CC` [SJ000361269-1], the IC50 was more than 70 µM.
For `CCCCCN(CCC)CCCNc1ccnc2cc(C(F)(F)F)ccc12` [SJ000361271-1], the IC50 was more than 70 µM.
